Experimental data published in patent publication US9211278B2, “Composition containing arylnaphthalene lignan derivative for preventing and/or treating dementia” (KOREA INSTITUTE OF SCIENCE AND TECHNOLOGY, priority 2012, dated 2015).

What was measured:
[1] = test system: HeLa cell line transfected with the amyloid precursor protein (APP); experiment: MTT cell proliferation assay (cell death); format: cell-based; conditions: 5 μg/ml, 8 hours
Experimental: To test the effect of Justicidin A and 5-methoxyJusticidin A on cell death, the MTT Cell Proliferation assay method (ATCC catalog #30-1010K, Manassas, USA) was used. Specifically, the HeLa cell line transfected with the amyloid precursor protein (APP) driven from human was treated with various concentrations of Justicidin A (S62-C1) or 5-methoxyJusticitdin A (S62-C2) for 8 hours, and the viable cells were quantified to show the result in FIG. 3.

APP endocytosis = APP endocytosis rate (confocal microscopy, reversible biotinylation); format: cell-based, human
Experimental: To test the endocytosis rate of App, 5×10^5 cells of HeLa cell line transfected with amyloid precursor protein (APP) as the substantially same method as Experimental Examples 6 and 7, seeded on poly-D-lysine coated cover glass and incubated for 24 hours. Then, 1 uM Justicidin A and APP antibody (1:100 diluted, SIG-39320, Covance) treated for 45 min at 4° C., washed out to remove free APP antibodies with culture fluid at three times. The cells were incubated at 37° C., starting endocytosis temperature, for 10, 30, and 60 min, and fixed by 4% paraformaldehyde for 15 min. Then, the cells were permeabilized by 0.1% triton X-100 for 5 min, and APP was marked by secondary fluorescent-labeled antibody (1:200 diluted, A11001, Invitrogen).
The change in the location of APP at various times was measured by confocal microscopy (LSM510, Zeiss, Germany) at 488 nm. […] (0 min). The endocytosis started at 37° C. […]
APP fluorescent intensity remained in plasma membrane compared to APP fluorescent intensity in plasma membrane at 0 min was measured.
For quantitative measurement of APP endocytosis rate, a reversible biotinylation method was used. […]
The result of western blotting was measured by band intensity to show the amount of intracellular APP (FIG. 10b; % internalization) with respect to total maAPP on the cell membrane (FIG. 10a).

O-glycosylated maAPP = experiment: APP O-glycosylation, O-glycosylation antibody then APP Western blotting; format: cell-based, human; conditions: 1, 5, 10 uM, 4 hrs
Experimental: According to the same method as above, HeLa cell line was treated with 1, 5, 10 uM of Justicidin A for 4 hrs. Then, the 5 ul of O-glycosylation antibody (#MMS-248R, Covance) was added to 500 ug of the separated plasma membrane protein, and performed by electrophoresis and the western blotting using the APP antibody (1:2000 diluted, A8717, Sigma).

[2] = test system: APP targeted to plasma membrane (maAPP); experiment: Targeting of mature APP (maAPP) to plasma membrane, biotinylation method; format: cell-based, human
Experimental: It is reported that APP made in ER, then passed through Golgi, targeted to plasma membrane, in the maAPP form. APP hydrolysis was performed by alpha-secretase, sAPPα secretion was increased, and Aβ secretion, made by beta secretase, was decreased. Relative amount of maAPP increased by Justicidin A, amount of APP targeted to plasma membrane was measured by biotinylation method.
Hela cell line, transfected with the amyloid precursor protein (APP), was incubated in DMEM (Cat. #11995, Gibco, USA). The cell line was received from Prof. Tae-Wan Kim at Department of Pathology, Columbia University Medical Center, New York, N.Y. 10032, USA. 1.5×10^6 cells seeded in 60 mm dish, incubated for 24 hours. […] Avidin (S 1638, Sigma), specifically interacted to biotin, added to pellet (30 ul, 4° C., incubated for 30 min) for precipitation biotinylated protein, and precipitated protein was performed electrophoresis, then measured change of APP protein, exposed protein of outside of cell, by western blotting with APP antibody (1:2000 diluted, A8717, Sigma).
When Justicidin A was treated for 1 hour, the biotinylated APP was increased as the concentration increased 0.03, 0.1, and 0.25 uM, the and the molecular weight was the same as O-glycosylated APP (maAPP) (FIG. 7a). The result of western blotting was measured by band intensity to show the result in FIG. 7b. […]

PC12 cell = experiment: Cell viability assay, Cell counting kit-8; format: cell-based; conditions: 125 nM to 1000 nM, 24 hrs
Experimental: Firstly, cell viability assay was performed for identifying whether Justicidin A had toxicity to normal brain cell line. Cell viability assay performed using Cell counting kit-8 (CCK-8, WST-8, Kamimashikigun, Kumamoto, Japan). More particularly, 1.5×10^4 cells of PC12 (Cell No. RCB0009, RIKEN BRC Cell Bank, Tsukuba, Ibaraki, Japan) were seeded to each well of 96-well plate, and incubated for 24 hrs. Then various concentrations of Justicidin A were treated for 24 hrs, and measured by Cell counting kit-8.

COc1cc2c(OC)c3c(c(-c4ccc5c(c4)OCO5)c2cc1OC)C(=O)OC3 [Justicidin A]
cell lines died [1]: ≤ 20% | APP endocytosis (reversible biotinylation) (APP endocytosis; 1 uM pre-treated, 5, 10, 30 min at 37° C.): showed reduced endocytosis of APP | APP endocytosis (APP fluorescent intensity remaining in plasma membrane) (APP endocytosis; 1 uM pre-treatment, confocal microscopy, 10, 30, 60 min at 37° C.): APP endocytosis was delayed | O-glycosylated maAPP (O-glycosylated maAPP): the O-glycosylated maAPP was increased | amount of maAPP in the cell membrane, by treatment time ([2]; 0.1 uM, 10 min to 240 min): the amount of maAPP in the cell membrane as the treatment time increased | amount of maAPP (biotinylated APP) in plasma membrane, by concentration ([2]; 0.03, 0.1, and 0.25 uM, 1 hour): amount of maAPP increased in plasma membrane in a concentration-dependent manner | toxicity to PC12 cell (PC12 cell): has no toxicity to PC12 cell
